# Source: ChEMBL document CHEMBL5143570, “Development of naringenin-O-carbamate derivatives as multi-target-directed liagnds for the treatment of Alzheimer's disease” (Bioorg Med Chem Lett, 2022)
# Activity calls are given as the source filed them. The rule behind the calls is not given here.
# Experiments:
# Butyrylcholinesterase = Butyrylcholinesterase (Rattus norvegicus, UniProt Q9JKC1); test: Inhibition of rat serum Butyrylcholine esterase using butyrylthiocholine as substrate incubated for 15 mins by DTNB reagent based Ellman's method; type: cell-free
# [1] = Antioxidant activity assessed as trolox equivalent of ORAC radical scavenging activity by ORAC-FL assay; type: functional
# Acetylcholinesterase [2] = biological target: T1, Acetylcholinesterase (Homo sapiens, UniProt P22303); test: Inhibition of human erythrocyte AChE using acetylthiocholine as substrate incubated for 15 mins by DTNB reagent based Ellman's method; type: cell-based
# Rattus norvegicus = organism: Rattus norvegicus; test: Selectivity index, ratio of IC50 for inhibition of rat serum butyrylcholine esterase to IC50 for inhibition of rat cortex AChE
# Acetylcholinesterase [3] = biological target: T2, Acetylcholinesterase (Rattus norvegicus, UniProt P37136); test: Inhibition of rat cortex AChE using acetylthiocholine as substrate incubated for 15 mins by DTNB reagent based Ellman's method; type: tissue-based
# T2 sequence (P37136 whole entry): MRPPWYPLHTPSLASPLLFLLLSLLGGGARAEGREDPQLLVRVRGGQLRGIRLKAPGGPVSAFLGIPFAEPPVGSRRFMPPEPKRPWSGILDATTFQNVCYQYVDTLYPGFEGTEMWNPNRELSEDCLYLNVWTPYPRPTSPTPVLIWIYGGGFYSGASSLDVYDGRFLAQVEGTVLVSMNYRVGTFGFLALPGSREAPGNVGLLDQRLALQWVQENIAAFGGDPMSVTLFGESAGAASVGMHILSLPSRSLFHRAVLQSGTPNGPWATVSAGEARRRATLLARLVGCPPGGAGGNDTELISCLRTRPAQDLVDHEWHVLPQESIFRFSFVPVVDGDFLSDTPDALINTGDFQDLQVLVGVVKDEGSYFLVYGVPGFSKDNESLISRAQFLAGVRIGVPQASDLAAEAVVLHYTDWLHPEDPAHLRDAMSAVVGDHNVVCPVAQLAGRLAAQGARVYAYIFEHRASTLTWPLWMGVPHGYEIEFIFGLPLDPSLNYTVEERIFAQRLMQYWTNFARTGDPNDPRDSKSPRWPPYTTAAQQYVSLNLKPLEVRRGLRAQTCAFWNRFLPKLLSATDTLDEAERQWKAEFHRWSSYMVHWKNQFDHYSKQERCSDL
# Homo sapiens = organism: Homo sapiens; test: Selectivity index, ratio of IC50 for inhibition of human serum BuChE to IC50 for inhibition of human erythrocyte AChE
# Cholinesterase = Cholinesterase (Homo sapiens, UniProt P06276); test: Inhibition of human serum BuChE using butyrylthiocholine as substrate incubated for 15 mins by DTNB reagent based Ellman's method; type: cell-free
# Acetylcholinesterase [4] = biological target: T1, Acetylcholinesterase; test: Pseudo-irreversible inhibition of human AChE assessed as restoration of enzyme activity at 0.1 time of IC50 concentration incubated for 120 mins by dilution method relative to control; design: scale not given: the % may be the effect or the level left
# PC-12 [5] = test: Neuroprotective activity against H2O2-induced cytotoxicity in rat PC-12 cells assessed as increase in cell viability at 100 uM by MTT assay relative to control; type: functional, cell-based
# [6] = biological target: Amyloid-beta precursor protein (Homo sapiens) (UniProt P05067); test: Inhibition of amyloid beta (1 to 42) (unknown origin) self-induced fibril formation at 25 uM incubated for 24 hrs by transmission electron microscopic analysis
# HT-22 [7] = test: Effect on tau protein expression in pRK5-GFP-Tau plasmid transfected mouse HT-22 cells assessed as fluorescence intensity by measuring decrease in GFP level at 5 to 20 uM incubated for 24 hrs by western blot analysis; type: functional, cell-based; conditions: dose 5-20 µM
# [8] = Effect on tau protein expression in pRK5-GFP-Tau P301L plasmid transfected mouse HT-22 cells assessed as reduction in fluorescence intensity at 5 uM by fluorescence microscopic analysis (reference value: 35.0); type: functional
# [9] = Effect on APP protein expression in pEGFP-N1-APP plasmid transfected mouse HT-22 cells assessed as decrease in fluorescence intensity at 10 uM incubated for 24 hrs by fluorescence microscopic analysis (reference value: 30.7); type: functional
# PC-12 [10] = test: Neuroprotective activity against H2O2-induced cytotoxicity in rat PC-12 cells assessed as increase in cell viability at 10 uM by MTT assay relative to control; type: functional
# [11] = Cytotoxicity against mouse HT-22 cells assessed as reduction in cell viability by MTT assay; type: toxicity, cell-based
# PC-12 [12] = test: Neuroprotective activity against H2O2-induced cytotoxicity in rat PC-12 cells assessed as increase in cell viability at 5 uM by MTT assay relative to control; type: functional
# PC-12 [13] = test: Cytotoxicity against rat PC-12 cells assessed as reduction in cell viability measured upto 40 uM incubated for 72 hrs by MTT assay; type: toxicity, cell-based; conditions: pc-12, 72 h
# [14] = Effect on tau protein expression in pRK5-GFP-Tau P301L plasmid transfected mouse HT-22 cells assessed as reduction in fluorescence intensity at 20 uM by fluorescence microscopic analysis (reference value: 35.0); type: functional
# [15] = Effect on APP protein expression in pEGFP-N1-APP plasmid transfected mouse HT-22 cells assessed as decrease in fluorescence intensity at 20 uM incubated for 24 hrs by fluorescence microscopic analysis (reference value: 30.7); type: functional
# [16] = Effect on tau protein expression in pRK5-GFP-Tau plasmid transfected mouse HT-22 cells assessed as reduction in fluorescence intensity at 5 uM incubated for 24 hrs by fluorescence microscopic analysis (reference value: 36.8); type: functional
# HT-22 [17] = test: Effect on APP protein expression in pEGFP-N1-APP plasmid transfected mouse HT-22 cells assessed as fluorescence intensity by measuring decrease in GFP level incubated for 24 hrs by western blot analysis; type: functional, cell-based; conditions: dose 5-20 µM, DDE = dose-dependent effect
# [18] = biological target: Amyloid-beta precursor protein (Homo sapiens) (UniProt P05067); test: Inhibition of amyloid beta (1 to 42 ) (unknown origin) self-induced aggregation at 25 uM by thioflavin-T fluorescence method relative to control
# [19] = Effect on tau protein expression in pRK5-GFP-Tau plasmid transfected mouse HT-22 cells assessed as reduction in fluorescence intensity at 10 uM incubated for 24 hrs by fluorescence microscopic analysis (reference value: 36.8); type: functional
# [20] = Effect on tau protein expression in pRK5-GFP-Tau P301L plasmid transfected mouse HT-22 cells assessed as reduction in fluorescence intensity at 10 uM by fluorescence microscopic analysis (reference value: 35.0); type: functional
# [21] = Effect on tau protein expression in pRK5-GFP-Tau plasmid transfected mouse HT-22 cells assessed as reduction in fluorescence intensity at 20 uM incubated for 24 hrs by fluorescence microscopic analysis (reference value: 36.8); type: functional
# [22] = Effect on APP protein expression in pEGFP-N1-APP plasmid transfected mouse HT-22 cells assessed as decrease in fluorescence intensity at 5 uM incubated for 24 hrs by fluorescence microscopic analysis (reference value: 30.7); type: functional
# T1 sequence (P22303 whole entry): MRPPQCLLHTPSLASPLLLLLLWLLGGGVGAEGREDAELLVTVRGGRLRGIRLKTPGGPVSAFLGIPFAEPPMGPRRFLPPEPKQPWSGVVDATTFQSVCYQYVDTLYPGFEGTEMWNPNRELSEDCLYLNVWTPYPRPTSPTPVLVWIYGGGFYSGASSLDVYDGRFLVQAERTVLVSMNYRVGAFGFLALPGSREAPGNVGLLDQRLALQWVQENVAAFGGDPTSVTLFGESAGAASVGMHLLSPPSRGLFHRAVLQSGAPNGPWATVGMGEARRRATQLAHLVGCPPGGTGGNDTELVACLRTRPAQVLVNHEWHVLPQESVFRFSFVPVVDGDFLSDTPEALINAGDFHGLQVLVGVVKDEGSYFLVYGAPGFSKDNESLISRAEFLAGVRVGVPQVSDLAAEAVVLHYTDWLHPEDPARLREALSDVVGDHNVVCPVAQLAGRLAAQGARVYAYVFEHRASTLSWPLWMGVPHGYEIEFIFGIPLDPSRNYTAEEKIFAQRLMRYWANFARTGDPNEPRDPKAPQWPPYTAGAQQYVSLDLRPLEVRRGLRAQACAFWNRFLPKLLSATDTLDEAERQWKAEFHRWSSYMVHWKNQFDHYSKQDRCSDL
# Butyrylcholinesterase, sequence (Q9JKC1 whole entry): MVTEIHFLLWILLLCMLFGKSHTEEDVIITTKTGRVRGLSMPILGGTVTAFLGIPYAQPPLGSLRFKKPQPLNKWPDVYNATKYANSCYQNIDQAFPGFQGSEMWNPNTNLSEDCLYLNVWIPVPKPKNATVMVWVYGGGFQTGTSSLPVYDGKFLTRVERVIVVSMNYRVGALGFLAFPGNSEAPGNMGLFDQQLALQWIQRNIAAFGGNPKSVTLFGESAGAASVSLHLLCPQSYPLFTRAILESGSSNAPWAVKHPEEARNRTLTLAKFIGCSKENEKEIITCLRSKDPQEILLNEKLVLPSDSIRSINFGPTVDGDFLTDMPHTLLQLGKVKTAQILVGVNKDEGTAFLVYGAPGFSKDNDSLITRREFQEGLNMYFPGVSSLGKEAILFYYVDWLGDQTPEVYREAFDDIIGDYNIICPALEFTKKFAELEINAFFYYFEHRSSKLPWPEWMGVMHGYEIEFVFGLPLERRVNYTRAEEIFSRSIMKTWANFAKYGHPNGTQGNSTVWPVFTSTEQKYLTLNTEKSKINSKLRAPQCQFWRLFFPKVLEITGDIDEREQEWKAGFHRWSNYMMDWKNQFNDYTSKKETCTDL
# Cholinesterase, sequence (P06276 whole entry): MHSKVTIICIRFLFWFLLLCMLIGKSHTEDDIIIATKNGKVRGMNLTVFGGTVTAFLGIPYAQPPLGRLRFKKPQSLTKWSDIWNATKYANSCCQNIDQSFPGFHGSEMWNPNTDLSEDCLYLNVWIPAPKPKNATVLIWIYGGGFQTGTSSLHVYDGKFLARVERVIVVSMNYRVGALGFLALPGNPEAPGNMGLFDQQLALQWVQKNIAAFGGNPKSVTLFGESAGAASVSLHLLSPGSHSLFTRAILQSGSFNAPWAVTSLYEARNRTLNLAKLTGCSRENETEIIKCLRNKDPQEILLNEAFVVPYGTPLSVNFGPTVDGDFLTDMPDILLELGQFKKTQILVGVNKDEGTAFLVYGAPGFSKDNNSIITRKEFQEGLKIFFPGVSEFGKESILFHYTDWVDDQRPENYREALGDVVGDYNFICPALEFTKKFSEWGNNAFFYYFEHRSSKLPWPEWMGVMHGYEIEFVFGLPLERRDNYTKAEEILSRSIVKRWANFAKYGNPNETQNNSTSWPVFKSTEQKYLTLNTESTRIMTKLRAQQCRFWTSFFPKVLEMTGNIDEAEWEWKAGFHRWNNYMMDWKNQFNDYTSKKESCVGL
# Amyloid-beta precursor protein (Homo sapiens), sequence (P05067 whole entry): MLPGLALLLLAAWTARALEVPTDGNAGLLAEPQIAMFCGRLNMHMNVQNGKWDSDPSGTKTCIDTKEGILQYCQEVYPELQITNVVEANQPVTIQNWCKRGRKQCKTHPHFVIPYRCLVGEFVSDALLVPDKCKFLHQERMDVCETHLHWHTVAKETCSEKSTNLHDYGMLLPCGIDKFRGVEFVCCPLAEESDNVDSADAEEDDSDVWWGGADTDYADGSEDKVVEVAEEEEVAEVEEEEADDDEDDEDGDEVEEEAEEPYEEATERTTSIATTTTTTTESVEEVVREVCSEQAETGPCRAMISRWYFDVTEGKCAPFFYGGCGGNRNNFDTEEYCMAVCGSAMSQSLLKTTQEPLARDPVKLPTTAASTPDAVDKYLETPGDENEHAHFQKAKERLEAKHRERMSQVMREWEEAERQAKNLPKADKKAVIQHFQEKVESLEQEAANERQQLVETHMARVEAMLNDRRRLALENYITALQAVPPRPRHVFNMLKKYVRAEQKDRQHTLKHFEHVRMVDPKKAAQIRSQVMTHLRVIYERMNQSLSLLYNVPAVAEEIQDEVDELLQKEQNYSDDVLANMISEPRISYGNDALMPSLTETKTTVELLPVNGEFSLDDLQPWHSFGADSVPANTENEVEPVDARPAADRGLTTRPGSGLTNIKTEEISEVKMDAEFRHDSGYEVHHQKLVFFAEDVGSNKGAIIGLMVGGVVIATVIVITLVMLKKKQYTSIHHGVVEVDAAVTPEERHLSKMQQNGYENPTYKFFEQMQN
Compound,IC50 (Butyrylcholinesterase),Activity [1],Ratio IC50 (Rattus norvegicus),IC50 (Acetylcholinesterase [3]),further results
CCN(C)C(=O)Oc1ccc(-c2cc(=O)c3c(O)cc(OC(=O)N(C)CC)cc3o2)cc1,15.6 µM,1.3,2.7,5.7 µM,IC50 (Acetylcholinesterase [2]): 7.9 µM; Ratio IC50 (Homo sapiens): 2.4; IC50 (Cholinesterase): 18.7 µM
CCN(C)C(=O)Oc1cccc([C@H](C)N(C)C)c1,–,–,–,–,Activity (Acetylcholinesterase [4]): 76.3%
CCN(C)C(=O)Oc1cc(O)c2c(c1)OC(c1ccc(O)cc1)CC2=O (stereo not given),28.2 µM,2.7,2.4,11.6 µM,–
O=C1CC(c2ccc(OC(=O)N3CCOCC3)cc2)Oc2cc(OC(=O)N3CCOCC3)cc(O)c21 (stereo not given),23.6 µM,1,2.1,11.3 µM,–
O=c1cc(-c2ccc(O)cc2)oc2cc(O)cc(O)c12 [APIGENIN],> 50 µM,5.5,–,> 50 µM,–
CCN(C)C(=O)Oc1ccc(-c2coc3cc(OC(=O)N(C)CC)cc(O)c3c2=O)cc1,29.3 µM,1.2,2.6,11.2 µM,–
CCN(CC)C(=O)Oc1ccc(C2CC(=O)c3c(O)cc(OC(=O)N(CC)CC)cc3O2)cc1 (stereo not given),22.4 µM,1.1,2.1,10.7 µM,–
O=c1c(-c2ccc(O)cc2)coc2cc(O)cc(O)c12 [GENISTEIN],> 50 µM,6.2,–,> 50 µM,–
CON(C)C(=O)Oc1ccc(C2CC(=O)c3c(O)cc(OC(=O)N(C)OC)cc3O2)cc1 (stereo not given),18.1 µM,1.2,1.8,9.9 µM,–
O=C1CC(c2ccc(OC(=O)N(c3ccccc3)c3ccccc3)cc2)Oc2cc(OC(=O)N(c3ccccc3)c3ccccc3)cc(O)c21 (stereo not given),25.2 µM,1.1,1.4,18.2 µM,–
O=C1CC(c2ccc(OC(=O)N3CCCC3)cc2)Oc2cc(OC(=O)N3CCCC3)cc(O)c21 (stereo not given),19.8 µM,1.1,1.4,14.5 µM,–
VITAMIN E,–,–,–,–,Activity (PC-12 [5]): 67.3%
CCN(C)C(=O)Oc1ccc(-c2cc(=O)c3c(OC(=O)N(C)CC)cc(OC(=O)N(C)CC)cc3o2)cc1,14.3 µM,0.2,2.1,6.9 µM,IC50 (Acetylcholinesterase [2]): 12.3 µM; Ratio IC50 (Homo sapiens): 1.7; IC50 (Cholinesterase): 20.6 µM
O=C1CC(c2ccc(O)cc2)Oc2cc(O)cc(O)c21 (stereo not given),> 50 µM,5.1,–,> 50 µM,–
CON(C)C(=O)Oc1ccc(-c2cc(=O)c3c(O)cc(OC(=O)N(C)OC)cc3o2)cc1,19.7 µM,1.1,2.1,9.3 µM,–
CN(C)C(=O)Oc1ccc(C2CC(=O)c3c(O)cc(OC(=O)N(C)C)cc3O2)cc1 (stereo not given),26.5 µM,0.9,–,14.2 µM,–
CON(C)C(=O)Oc1ccc(-c2coc3cc(OC(=O)N(C)OC)cc(O)c3c2=O)cc1,27.1 µM,1,2,13.5 µM,–
CCN(C)C(=O)Oc1ccc(-c2coc3cc(OC(=O)N(C)CC)cc(OC(=O)N(C)CC)c3c2=O)cc1,16.9 µM,0.3,1.9,8.7 µM,–
CCN(C)C(=O)Oc1ccc(C2CC(=O)c3c(OC(=O)N(C)CC)cc(OC(=O)N(C)CC)cc3O2)cc1 (stereo not given),20.2 µM,0.2,–,6.7 µM,inhibition [6]: Active; Activity (Acetylcholinesterase [4]): 75.9%; Activity (HT-22 [7]): Active; IC50 (Acetylcholinesterase [2]): 10.6 µM; Flu intensity [8]: 18.7; Flu intensity [9]: 22.1; Activity (PC-12 [10]): 64.1%; IC50 [11]: 215 µM; Activity (PC-12 [12]): 59.3%; Activity (PC-12 [13]): Non-Toxic; Flu intensity [14]: 16; Flu intensity [15]: 20.7; Flu intensity [16]: 23.7; Activity (HT-22 [17]): Dde; inhibition [18]: 42.1%; IC50 (Cholinesterase): 24.5 µM; Flu intensity [19]: 20.7; Flu intensity [20]: 17.6; Flu intensity [21]: 6.48; Flu intensity [22]: 22.3
CCN(CC)C(=O)Oc1cc(O)c2c(c1)OC(c1ccc(O)cc1)CC2=O (stereo not given),26.7 µM,2.5,1.8,15.1 µM,–
